System: P 815 line
Assay: cell proliferation of the P 815 line (tritiated thymidine incorporation)
Type: cell-based
Conditions: P 815 cells, 7 hours incubation in RPMI medium with phenol red, tritiated thymidine added after 3 hours, radioactivity associated with the DNA
Description: The biological activity of the derivative of formula I was compared with dipropylenetriamine NONOate (A), melatonin (B) and a dipropylenetriamine NONOate and melatonin (1/2) mixture (C) on the cell preparation of the cell proliferation of the P 815 line.
The cells are incubated with the products in RPMI medium with phenol red for 7 hours. Tritiated thymidine is added after incubating for 3 hours.
The results are shown on the curve in the single appended FIGURE, where the concentration of product (μM) is carried on the abscissa and the radioactivity associated with the DNA (cpm) is carried on the ordinate.

Structure (SMILES): COc1ccc2c(c1)c(CCNC(C)=O)cn2N=O [compound of formula I, N1-nitrosomelatonin]
- IC50 (Mus musculus, P815): 280 µM

Structure (SMILES): NCCCN(CCCN)/[N+]([O-])=N/O [dipropylenetriamine NONOate (A), dipropylenetriamine NONOate]
- IC50: 150 µM
